Structures can show the parent of a compound that is named as a salt.

Experimental findings from patent US20030153611A1, “1,3-Diarylprop-2-en-1-ones, compositions containing them and use thereof” (AVENTIS PHARMA S.A., priority 2001, published 2003) are described below.

For one data set, the system named is HDMEC cells. In words: Detachment effect on HDMEC endothelial cells. In kind it is cell-based, Human. The following applies: 1 μM, treatment for two hours.
Text: A test to determine the detachment of endothelial cells was established in order to select the products on the basis of their “in vitro” activity. This test for determining the endothelial cell detachment is characterized in that the endothelial cells, inoculated in plates which are coated at the bottom with a binder, e.g., chosen from gelatin, fibronectin or vitronectin, after culturing, are supplemented with a medium containing the test compound, and the cells are then labeled with a fluorescent substance, the cells which become detached are removed by washing and the fluorescence of the remaining cells is counted in a fluorimeter.
This test consists in measuring the detachment of endothelial cells cultured on substrates based on a binder, e.g., chosen from fibronectin, vitronectin and gelatin. One day after inoculating the cells in plates containing 96 wells, for example, the culture medium is replaced with a medium containing the test compound in the absence of serum. The same preparation is prepared six times at three different concentrations ([…]) and the control without addition of antivascular product is prepared six times. After treatment for two hours with the test substance, the cells are labeled with calcein-AM (1.6 μg/ml) in a culture medium supplemented with 0.1% BSA. The cells which become detached are removed by washing with the culture medium containing 0.1% bovine serum albumin; 100 μl of medium are added to each well. The fluorescence of the remaining cells is counted in a fluorimeter. The data obtained are expressed relative to the control (untreated cells).
(§1) The assessment of the detachment of the endothelial cells in vitro is determined in the following way. HDMEC cells (Human Dermal Microvascular Endothelial Cells, Promocell, c-122102) are cultured in an ECGM-MV medium containing 5% fetal calf serum, growth factors (EGF 10 ng/ml, hydrocortisone 1 μg/ml, 0.4% growth supplement with heparin) and antibiotics (amphotericin 50 ng/ml, gentamicin 50 μg/ml). For the detachment test, the HDMECs are inoculated at a rate of 5 000 cells in clear-bottomed 96-well plates (Costar) precoated with fibronectin (10 μg/ml) or vitronectin (1 μg/ml) or gelatin. Twenty-four hours later, the culture medium is replaced with 0.1% BSA ECGM-MV medium containing the indicated products. The test concentrations are 0.1-0.3 and 1 μM for each product. After treatment for two hours, the cells are labeled for 1 hour with calcein (1.6 μg/ml, Molecular Probes) in 0.1% BSA ECGM-MV medium. The detached cells are then removed by washing with 0.1% BSA ECGM-MV medium; 100 μl of medium are added to each well. The fluorescence of the cells which remain attached to the substratum of the well is counted using a fluorimeter, Spectrafluor Plus (Tecan, excitation at 485 nm, and emission at 535 nm). The data are the average of six different samples and are expressed as a percentage of the control (untreated cells).
A cell detachment effect of greater than or equal to 15% is considered as significant.
as §1, with “(amphotericine” for “(amphotericin”, “The detached cells are then removed by washing with 0.1% BSA ECGM-MV medium; 100 μl of medium are added to each well. The fluorescence of the cells which remain attached to the substratum of the well is counted using a fluorimeter, Spectrafluor Plus (Tecan, excitation at 485 nm, and emission at 535 nm). The data are the average of six different samples and are expressed as a percentage of the control (untreated cells).” left out

Data set [1] concerns C51 murine adenocarcinoma. The data set can be described thus: Assessment of the tumor necrosis in vivo. Conditions: intravenous injection, 24 hours after treatment, female BALB/c mice. From the text: Mice are bred by IFFA-CREDO (Domaine des Oncins, 69210 L'Arbresle, France) from a race obtained by Jackson Laboratories, Bar Harbor, Me., USA, or by Charles River France (76410 St Aubin les Elbeuf, France) from a race obtained by Charles River, USA. The mice initially weigh more than 18 g at the start of the test. They have free access to food (UAR reference 113, Villemoisson, 91160 Epinay sur Orge, France) and water.
The tumors used are currently transplanted in our laboratories. All these tumors are at the Frederick Cancer Research Facility (Frederick, Md., USA) in the frozen tumor deposit of the National Cancer Institute (NCl) or at the American Type Culture Collection (ATCC, Rockville, Md., USA).
The tumor transplantation techniques, the chemotherapy and the data analysis are presented in detail (Corbett et al. 1982a; Corbett et al., 1982b).
To summarize, the animals required for an experiment are assembled and implanted bilaterally on day 0 (zero).
The growth of the solid tumors develops freely up to the desired size. The mice are then treated by intravenous injection of a test compound in solution.
The sampling of tumors is usually (but not necessarily) carried out 24 hours after the treatment.
The mice are killed by […]. The implanted tumors, along with the skin covering them and the neighboring tissues, are collected and stored in 10% formaldehyde (v/v) (Carlo Erba, Val de Reuil, France).
The samples are then treated, sectioned, stained with hematoxylin, eosin and saffron yellow, and are then examined […]. The tumor necrosis (necrosis±degeneration) is assessed microscopically using a scale of magnitude from 0 to 5:
The values assigned to the tumor necrosis 24 hours after administration of the test compound correspond solely to a necrosis dependent on the product which may be differentiated with certainty from any existing necrosis arising from the experiment.
The necrosis due to the experiment was assessed on an untreated control.
The tumor model is a C51 murine adenocarcinoma. This colon tumor is a grade III mucous colon […]. It is maintained by serial subcutaneous passages every 18 days in female BALB/c mice. The experiments were carried out on female BALB/c mice.

A further data set has as its target T1, Tubulin (Sus scrofa, UniProt P02550+P02554).
T1 construct: Tubulin is purified from pig brains according to the published methods; from tissue; host or cells: pig brain
The data set can be described thus: Assessment of the inhibition of tubulin polymerization (turbidimetry). The following applies: tubulin 10 μM, turbidity at 350 nm, 37° C. It counts as biochemical, pig. How it is done:
Tubulin is purified from pig brains according to the published methods (Shelanski et al., 1973, Proc. Natl, Acad. Sci. USA, 70, 765-768. Weingarten et al., 1975, Proc. Natl, Acad. Sci. USA, 72, 1858-1862). Briefly, the brains are ground and centrifuged in an extraction buffer. The tubulin, contained in the extract supernatant, is subjected to two successive cycles of polymerization at 37° C. and depolymerization at 4° C., before being separated from the MAPs (Microtubule Associated Proteins) by chromatography on a phosphocellulose P11 column (Whatman). The tubulin thus isolated is more than 95% pure. It is stored in a buffer known as RB/2 30% glycerol, the composition of which is MES-NaOH [2-(N-morpholino)ethanesulfonic acid] 50 mM, pH 6.8; MgCl2 0.25 mM; EGTA 0.5 mM; 30% glycerol (v/v), GTP (guanosine 5′-triphosphate) 0.2 mM.
The polymerization of the tubulin into microtubules is monitored by turbidimetry as follows; the tubulin is adjusted to a concentration of 10 μM (1 mg/ml) in the RB/2 30% glycerol buffer, to which is added 1 mM GTP and 6 mM MgCl2. The polymerization is initiated by increasing the temperature from 6° C. to 37° C. in a cuvette with a 1 cm optical pathlength, placed in a Uvikon 931 spectrophotometer (Kontron) equipped with a thermostatically-regulated cuvette holder. The increase in the turbidity of the solution is monitored at 350 nm.
The products are dissolved at 10 mM in DMSO and added at variable concentrations (0.5 to 10 μM) to the tubulin solution before polymerization. The IC50 value is defined as the concentration of product which inhibits 50% of the rate of polymerization. A product whose IC50 value is less than or equal to 3 μM is considered as very active.

In another data set the test system is HDMEC. The data set can be described thus: Inhibition of cell proliferation, HDMEC. It counts as cell-based. The following applies: Homo sapiens.

T1 sequence (P02550 whole entry): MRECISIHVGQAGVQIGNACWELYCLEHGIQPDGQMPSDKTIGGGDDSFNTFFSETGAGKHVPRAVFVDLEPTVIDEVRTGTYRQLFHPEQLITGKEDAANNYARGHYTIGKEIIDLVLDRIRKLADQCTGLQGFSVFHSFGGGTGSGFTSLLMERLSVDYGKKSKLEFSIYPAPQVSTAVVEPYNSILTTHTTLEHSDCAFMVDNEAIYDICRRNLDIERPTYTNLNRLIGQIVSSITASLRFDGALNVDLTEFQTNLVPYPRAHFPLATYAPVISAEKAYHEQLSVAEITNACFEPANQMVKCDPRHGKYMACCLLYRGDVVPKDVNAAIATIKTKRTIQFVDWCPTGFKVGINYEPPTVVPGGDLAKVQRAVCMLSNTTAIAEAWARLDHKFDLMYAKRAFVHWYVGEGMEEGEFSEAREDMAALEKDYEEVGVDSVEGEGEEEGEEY
T1 sequence (P02554 whole entry): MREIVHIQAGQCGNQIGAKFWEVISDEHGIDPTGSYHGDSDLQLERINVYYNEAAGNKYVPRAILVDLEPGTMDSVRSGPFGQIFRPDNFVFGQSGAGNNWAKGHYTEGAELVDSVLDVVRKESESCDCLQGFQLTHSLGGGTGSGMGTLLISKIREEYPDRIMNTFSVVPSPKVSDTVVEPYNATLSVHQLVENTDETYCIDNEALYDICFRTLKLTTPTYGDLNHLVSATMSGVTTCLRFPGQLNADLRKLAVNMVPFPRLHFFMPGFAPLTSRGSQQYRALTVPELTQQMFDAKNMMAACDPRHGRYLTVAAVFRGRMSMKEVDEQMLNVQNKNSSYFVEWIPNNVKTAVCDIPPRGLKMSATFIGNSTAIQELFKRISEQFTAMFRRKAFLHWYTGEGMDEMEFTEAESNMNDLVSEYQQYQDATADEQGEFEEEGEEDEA

On to `COc1cc(C(=O)/C(C)=C/c2ccc3c(c2)CCN3C)cc(OC)c1OC` [Example 6, E-2-Methyl-3-(1-methyl-2,3-dihydro-1-H-indol-5-yl)-1-(3,4,5-trimethoxyphenyl)propenone], for which the “Percentage of detachment of HDMEC cells induced with the compound at a concentration of 1 μM” value (“Percentage” below) in the data set with HDMEC cells worked out at 28%. For the same compound, the “C51 colon tumor necrosis in vivo (grade)” value in data set [1] (50 mg/kg) is recorded as “Grade 5 at 50 (5=large, >75%)”. The IC50 is 800 nM at Tubulin and 17 to 20 nM in the data set on HDMEC.

Regarding `COc1ccc(C=C(C)C(=O)c2cc(OC)c(OC)c(OC)c2)cc1NC(=O)[C@@H](N)CCCCN.Cl.Cl` [Example 10, (S)-2,6-Diaminohexanoic acid {2-methoxy-5-[2-methyl-3-oxo-3-(3,4,5-trimethoxyphenyl)propenyl]-phenyl}amide dihydrochloride], the “Percentage” value with HDMEC cells is recorded as 36%. In data set [1] (25 mg/kg), the “C51 colon tumor necrosis in vivo (grade)” value is given as “Grade 5 at 25 (5=large, >75%)”. Besides, in the data set on HDMEC, the IC50 was in the range of 207 to 225 nM.

For `COc1ccc(/C=C(\C)C(=O)c2cc(OC)c(OC)c(OC)c2)cc1NC(=O)CN` [Example 14, Aminoacetic acid {2-methoxy-5-[2-methyl-3-oxo-3-(3,4,5-trimethoxyphenyl)propenyl]phenyl}amide hydrochloride], the “Percentage” value with HDMEC cells was determined as 36%. The “C51 colon tumor necrosis in vivo (grade)” value in data set [1] (25 mg/kg) is “Grade 5 at 25 (5=large, >75%)”. Also, the IC50 against Tubulin was 25000 nM; in the data set with HDMEC it was 10 nM.

`COc1cc(C(=O)/C(C)=C/c2ccc3[nH]ccc3c2)cc2c1OCO2` [Example 17, E-2-Methyl-3-(1-H-indol-5-yl)-1-(3-methoxy-4,5-methylenedioxyphenyl)propenone]: the melting point amounted to 140 °C. The IC50 against Tubulin is 800 nM.

Regarding `COc1cc(C(=O)/C(C)=C/c2ccc3c(ccn3CCN(C)C)c2)cc2c1OCO2` [Example 18, E-2-Methyl-3-[1-(2-dimethylaminoethyl)-1-H-indol-5-yl]-1-(3-methoxy-4,5-methylenedioxyphenyl)propenone], the melting point stood at 118 °C. Further, at Tubulin, the IC50 is 2000 nM.

As a reminder, the IC50 is the concentration needed to halve the response being measured. Low values mean inhibition by little substance, high ones a need for much substance. As a reminder, the melting point is the temperature of the solid-liquid transition.
